Data published in patent publication US20210393791A1, “COMBINATION TREATMENT WITH ANTI-CD123 ANTIBODY DRUG CONJUGATE AND PARP INHIBITOR” (Health Research, Inc., priority 2018, published 2021).

Key:
[1] = tested on: primary CD123+ AML cells from patients with relapsed/refractory disease; assay: Short-term culture of primary relapsed/refractory AML patient samples; assay type: cell-based, human; details: single agent, in vitro
Procedure: (§1) CD123 expression on human AML cell lines (HEL, HL60, MV411, Molm13, EOL-1, THP-1, and Kasumi-1) was quantified by flow cytometry using QuantriBrite beads. AML cells were continuously cultured for 72-96 hours with varying doses of IMGN632 (range 100 pM-100 nM) and specific PARP inhibitors (range 100 pM-15 μM) alone and in combination. Cell viability was measured using a WST-8 colorimetric assay. Primary clinically annotated CD123+AML cells from patients with relapsed/refractory disease were obtained under IRB-approved protocols from the Roswell Park (Buffalo, N.Y.) Hematologic Procurement Shared Resource and cultured short-term in the presence of multiple cytokines plus IMGN632+/−PARP inhibitors. Apoptosis (Annexin V/PI), cell cycle, and DNA damage (H2AX) were evaluated by flow cytometry. Additive vs. synergistic effects were determined by combination indices using Compusyn software. PARP trapping was evaluated by Western blot analysis in nuclear lysates obtained from IMGN632+/−PARP inhibitors treated AML cells.

preclinical AML models = details: Portwood S et al, ASH 2016; cited from earlier work
human AML cell lines = assay: AML cell line viability, WST-8 colorimetric assay; assay type: cell-based; details: 120 h, continuous single agent 5-day treatment, read-out: IC50, in vitro inhibition of AML cell line growth
Procedure: as §1, with “AML cells were continuously cultured for 72-96 hours with varying doses of IMGN632 (range 100 pM-100 nM) and specific PARP inhibitors (range 100 pM-15 μM) alone and in combination.” left out

Molecule: O=C(c1cc(Cc2n[nH]c(=O)c3ccccc23)ccc1F)N1CCN(C(=O)C2CC2)CC1 [olaparib]
- activity against primary relapsed/refractory AML patient samples [1]: single agent activity
- effect on activity of the CD33-targeted ADC IMGN779 (preclinical AML models): synergistically enhance

Molecule: Cn1ncnc1[C@H]1c2n[nH]c(=O)c3cc(F)cc(c23)N[C@@H]1c1ccc(F)cc1 [talazoparib]
- IC50 (human AML cell lines): 0.36 µM
- activity against primary relapsed/refractory AML patient samples [1]: single agent activity

Molecule: C[C@]1(c2nc3c(C(N)=O)cccc3[nH]2)CCCN1 [veliparib]
- IC50 (human AML cell lines): 78 µM

Molecule: IMGN632
- activity against primary relapsed/refractory AML patient samples [1]: single agent activity
